This note sets out measurements from patent US20060154896A1, “Phosphorylated dextrans” (priority 2002, published 2006).

One experiment deals with mouse spleen cells. The experiment is described as follows: Blastogenic activity on mouse spleen cells ([3H]-thymidine uptake, Stimulation Index). It is filed as cell-based. The text has this:
In the preparation of immune cells, specific pathogen free (SPF) BALB/c mice (Japan SLC, Shizuoka, Japan) were used for examination. Five-week old male mice were purchased, and allowed to freely consume distilled water and MR breeder (Nihon Nosan Kogyo (Nosan Co.)), which is experimental feed for mice and rats. Six- to ten-week-old mice were used for the experiments.
BALB/c mice were anesthetized with ether, and then sacrificed by exsanguination. Their spleens were excised and washed with phosphate buffer (PBS-4×S.P; ph 7.3) containing streptomycin and penicillin ([…] and 400 U/ml, respectively) to remove adipose tissue and such. The spleens were well dispersed in gauze, and spleen cells were filtered through the gauze into PBS to prepare a cell suspension. This cell suspension was centrifuged (at 300×g for five minutes at 4° C.). After discarding the supernatant, the cells were re-suspended in RPMI-1640 medium (SIGMA). The suspension was filtered through a steel mesh to remove aggregated cells, and centrifuged again (five minutes at 300×g and 4° C.). After discarding the supernatant, the cells were finally re-suspended in RPMI-1640 containing 2% fetal calf serum (FCS: Biocell Lab., Inc., CA, US). The viable cell count was determined using a trypan blue staining method, and this suspension was used as the spleen cell suspension in the experiments.
The cell suspension was transferred into each well of a 96-well microplate (SUMITOMO BAKELITE CO., LTD. Tokyo, Japan) to give 2×10^5 cells per well. The dextran and five types of phosphorylated dextrans (molecular weights of about 10,000, 40,000, 160,000, 510,000, and 2,000,000) prepared in Example 1 were respectively added to the wells to a concentration of 100 μg/ml. The cells were then cultured in RPMI-1640 (2% FCS) under 5% CO2 at 37° C. for 48 hours. As positive control samples, lipopolysaccharide (LPS: B-cell mitogen, E. coli 0111: B4, SIGMA) or concanavalin A (ConA: T-cell mitogen, SIGMA) were added at a final concentration of 20 μg/ml and 2 μg/ml, respectively. […] TdR incorporated into the lymphocytes was determined using a liquid scintillation counter (LS1801; Beckman Coulter, Tokyo).
The blastogenic activities on lymphocytes were evaluated by calculating Stimulation Indexes (S.I.) from the [^3H] […]
The blastogenic activities of phosphorylated dextrans on mouse spleen cells were measured as described in Example 5, except that phosphorylated dextrans were added at concentrations of 100 ng/ml, 1 μg/ml, 10 μg/ml, 100 μg/ml, or 200 μg/ml, the cells were incubated in RPMI-1640 medium (2% FCS) under 5% CO2 at 37° C. for 48 hours, and methyl-[^3H]-thymidine uptakes were measured. Blastogenic activity was estimated by calculating S.I. values from the radioactivity, compared with a control. […]

In a further experiment the test system is B cells. The experiment is described as follows: Blastogenic activity on separated B cells (MACS CD45R adsorbed fraction). It is filed as cell-based, mouse. The settings on record: B cell fraction, 48 hours, FIG. 6. As to the method: (§1) The mouse spleen cell suspension prepared in Example 4 was washed by centrifugation (at 2,500 rpm for five minutes at 4° C.) with a buffer for cell separation (0.5% BSA, 2 mM EDTA/-PBS). 3×10^7 cells were incubated at 4° C. for 15 minutes with 50 μl of a 20-times diluted biotinylated anti-mouse CD45R antibody (CLTAG Lab, Burlingame, Calif.). The cells were washed by centrifugation with the cell separation buffer (five minutes at 2,500 rpm and 4° C.), and the supernatant was then discarded. 30 μl of ten-fold diluted streptavidin microbeads (Miltenyi Biotec GmbH, Germany) was added to the cells, and the mixture was incubated at 4° C. for 15 minutes. The cells were washed by centrifugation with the cell separation buffer (five minutes at 2,500 rpm and 4° C.), re-suspended in the same buffer, and the suspension was then filtered through a nylon mesh to remove aggregated cells. […]
(§2) The cells thus obtained were collected by centrifugation and re-suspended in RPMI-1640 containing 10% FCS. The blastogenic activity was then determined using the method described above, except that the stimulation by phosphorylated NPS was carried out at a concentration of 100 μg/ml, and the cells were incubated for 48 hours.

A further experiment concerns T cells. The experiment is described as follows: Blastogenic activity on separated T cells (MACS flow-through fraction). The conditions noted are these: T cell fraction, 48 hours, FIG. 6. It is filed as cell-based, mouse. The procedure:
as §1, §2

As to Lipopolysaccharide, the “blastogenic activity, S.I. (positive control)” value with mouse spleen cells (LPS 20 μg/ml, 48 hours, FIG. 3) was determined as 89.3; in the experiment on mouse spleen cells (LPS, FIG. 4 experiment), 79.8. Moreover, in the experiment with B cells, the “activation of B cells (positive control)” value is reported as “specifically activated”.

As for concanavalin A, the “blastogenic activity, S.I. (positive control)” value in the experiment with mouse spleen cells (ConA 2 μg/ml, 48 hours, FIG. 3) came to 189.4; in the experiment on mouse spleen cells (ConA, FIG. 4 experiment), 247.8. The “activation of T cells (positive control)” value with T cells is “specifically activated”.
